Key:
T4 lysozyme L99A/M102H† [1] = target: T1, T4 lysozyme L99A/M102H† (Enterobacteria phage T4, UniProt P00720, C54T/C97A/E108V/L99A/M102H/N144D/S117V/S38D/T142C/T21C); assay type: binding
T4 lysozyme L99A/M102H† [2] = target: T1, T4 lysozyme L99A/M102H†; assay type: binding; settings: crystal structure
T4 lysozyme L99A/M102H† [3] = target: T1, T4 lysozyme L99A/M102H†; assay type: binding; remark: listed apart in the source
T4 lysozyme L99A = settings: cited from earlier work

SMILES	hydrogen bond distance between ligand and His102 (T4 lysozyme L99A/M102H† [2]) [Å]	other results
C=CSc1ccccc1 [phenyl vinyl sulfide]	–	ΔGmelt (change of stability on ligand binding, ΔTm × ΔS) (T4 lysozyme L99A/M102H† [1]): 0.25 kcal/mol
C#CC(O)c1ccccc1 (stereo not drawn) [1-phenyl-2-propyn-1-ol, 1-phenyl-2-propyn-1-ol]	2.77	–
O=Cc1cc(O)ccc1Br [2-bromo-5-hydroxybenzaldehyde]	2.50	–
O=[N+]([O-])c1ccc(O)cc1 [4-nitrophenol]	–	ΔGmelt (change of stability on ligand binding, ΔTm × ΔS) (T4 lysozyme L99A/M102H† [1]): 1.4 kcal/mol; interaction with His102 stronger than with Gln102 (double perturbation analysis) (T4 lysozyme L99A/M102H† [3]): 2.4 kcal/mol
Nc1ncc(Cl)s1 [2-amino-5-chloro thiazole]	2.89	–
FC(F)(F)c1c[nH]cn1 [4-trifluoromethyl imidazole]	2.85	–
N#Cc1cc(Br)ccc1O [5-bromo-2-hydroxybenzonitrile]	–	ΔGmelt (change of stability on ligand binding, ΔTm × ΔS) (T4 lysozyme L99A/M102H† [1]): 0.6 kcal/mol
Brc1c[nH]cn1 [4-bromoimidazole]	2.93	–
Oc1ccccc1 [phenol]	–	binding to L99A cavity (T4 lysozyme L99A): does not measurably bind
Cc1cc(C(F)(F)F)n[nH]1 [3-methyl-5-(trifluoromethyl) pyrazole]	2.90	–
C=CCc1ccccc1O [2-allyl phenol]	3.00	–

Source: article PMC3624796 (Journal of Medicinal Chemistry, 2013)
